Biological target: Mu-type opioid receptor (Rattus norvegicus, UniProt P33535)
Sequence (P33535 whole entry): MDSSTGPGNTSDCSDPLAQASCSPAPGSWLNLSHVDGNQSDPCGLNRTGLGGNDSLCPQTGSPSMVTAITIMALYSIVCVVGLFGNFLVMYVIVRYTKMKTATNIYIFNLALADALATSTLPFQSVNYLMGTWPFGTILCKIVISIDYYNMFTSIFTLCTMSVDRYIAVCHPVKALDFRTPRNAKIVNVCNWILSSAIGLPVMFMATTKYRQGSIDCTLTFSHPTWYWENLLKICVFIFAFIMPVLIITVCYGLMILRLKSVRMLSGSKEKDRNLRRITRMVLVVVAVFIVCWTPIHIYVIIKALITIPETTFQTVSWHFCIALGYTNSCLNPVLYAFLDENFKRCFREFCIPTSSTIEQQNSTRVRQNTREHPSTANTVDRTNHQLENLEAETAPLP

## H-YGGFMTSEKSQTPLVTLFKNAIVKNAHKKGQ-OH [Beta-Endorphin]
  Ki: 1.7 nM

Source: BindingDB's records for PubMed 7815359 (University of Pennsylvania, 1995)
